In patent US4683198A, “Novel maltose dehydrogenase, process for its production, and analytical method using the same” (Toyo Jozo Kabushiki Kaisha, priority 1983, dated 1987):

Target: T1, amylase (Homo sapiens, UniProt P0DUB6)
T1 construct: 500-fold-diluted saliva (a specimen containing amylase, 20 μl); from tissue; host or cells: saliva, 500-fold diluted
T1 sequence (P0DUB6 16-511): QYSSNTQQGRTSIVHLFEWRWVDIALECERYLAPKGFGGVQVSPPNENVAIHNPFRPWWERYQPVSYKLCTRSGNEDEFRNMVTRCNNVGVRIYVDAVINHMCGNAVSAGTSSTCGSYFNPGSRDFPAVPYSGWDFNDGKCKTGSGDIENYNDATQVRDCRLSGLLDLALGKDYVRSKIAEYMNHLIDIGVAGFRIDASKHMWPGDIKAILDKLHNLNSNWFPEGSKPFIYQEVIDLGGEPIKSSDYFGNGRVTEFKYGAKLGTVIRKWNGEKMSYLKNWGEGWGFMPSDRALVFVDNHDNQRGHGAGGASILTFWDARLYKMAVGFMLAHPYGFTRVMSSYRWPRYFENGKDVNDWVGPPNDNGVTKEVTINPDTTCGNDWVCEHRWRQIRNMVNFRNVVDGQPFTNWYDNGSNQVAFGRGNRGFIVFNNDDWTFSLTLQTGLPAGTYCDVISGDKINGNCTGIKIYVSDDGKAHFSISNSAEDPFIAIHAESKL
Assay: Salivary amylase assay with modified oligosaccharide substrates (Example 3)
Assay type: biochemical
Details: 5 mM substrate; 500-fold-diluted saliva; 37° C.
Experimental: Aliquots of the reaction mixture (each 1 ml), in which 5 mM p-nitrophenylpentaoside or p-nitrophenylheptaoside was added to the same reaction mixture described in Example 2, in small test tubes, were pre-incubated at 37° C. Aliquots of 500-fold-diluted saliva (a specimen containing amylase, 20 μl) were added thereto and the mixtures were incubated for 5, 10 and 15 mins., respectively.

activity as compared with p-nitrophenylpentaoside: Three times stronger activity
SMILES: O=[N+]([O-])c1ccc(OC2O[C@H](CO)[C@@H](O[C@H]3O[C@H](CO)[C@@H](O[C@H]4O[C@H](CO)[C@@H](O[C@H]5O[C@H](CO)[C@@H](O[C@H]6O[C@H](CO)[C@@H](O[C@H]7O[C@H](CO)[C@@H](O[C@H]8O[C@H](CO)[C@@H](O)[C@H](O)[C@H]8O)[C@H](O)[C@H]7O)[C@H](O)[C@H]6O)[C@H](O)[C@H]5O)[C@H](O)[C@H]4O)[C@H](O)[C@H]3O)[C@H](O)[C@H]2O)cc1 (stereo partly shown) [p-nitrophenylheptaoside]
